# Measured values published in patent US10702512B2, “Treatment of debilitating fatigue” (A. CARLSSON RESEARCH AB, priority 2015, dated 2020).
# Tested on: ME/CFS patients
# Assay: Stroop tests (Victoria version)
# Assay type: in vivo, human
# Set-up: Stroop 2, mean / Stroop 2, Difference / Stroop 2, median / Stroop 3, mean / Stroop 3, Difference / Stroop 3, median / Stroop 1, mean / Stroop 1, Difference / Stroop 1, median: unit not given here
# Experimental: Next, patients were evaluated using a neuropsychological test. 61 patients were included in a neuropsychological examination. All subjects were tested once in connection with the randomization with the BNIS neuropsychological screening test. 20-30 minutes was required for this test. With the purpose of measuring the cognitive effects of the OSU6162 treatment six more tests were distributed at a first occasion before the initiation of treatment and at a second occasion after the treatment was completed. These tests required 20 minutes each. All tests were performed by a neuropsychologist. The Stroop test (Victoria version) is a time-based test sensitive to frontal lobe dysfunction. It measures executive functioning and is validated and used internationally. Depression and anxiety could influence the results. Speeds of processing and conceptual abilities contribute to the performance. It also reflects the ability of concentration. The test consists of three cards each containing six rows of four items. Stroop I is on the first card. In this subtest the subject must name as quickly as possible the color of 24 dots printed in blue, green, red and yellow. Each color is used six times and the four colors are arranged in pseudo-random order within the array, each color appears once in a row. Stroop 2 is on the second card. In this subtest the dots are replaced by common words printed in lower-case letters. The subject is required to name the colors in which the stimuli are presented and to disregard their verbal content. Stroop 3 is on the third card. In this subtest the colored stimuli are the color names “blue, green, red and yellow” printed in lower case letters so that the print color never corresponds to the color name.
compound,measurement,setting,value
"CCCN1CCC[C@@H](c2cccc(S(C)(=O)=O)c2)C1.Cl [OSU6162, (3S)-3-[3-(methylsulfonyl)-phenyl]-1-propylpiperidine hydrochloride]","Stroop 1, max",after treatment,20 s
same,"Stroop 1, mean",after treatment,12.77
same,"Stroop 1, median",after treatment,12
same,"Stroop 1, min",after treatment,8
same,"Stroop 2, max",after treatment,29 s
same,"Stroop 2, mean",after treatment,16.9
same,"Stroop 2, median",after treatment,16
same,"Stroop 2, min",after treatment,9
same,"Stroop 3, max",after treatment,62 s
same,"Stroop 3, mean",after treatment,23.48
same,"Stroop 3, median",after treatment,23
same,"Stroop 3, min",after treatment,12
same,Stroop tests difference between OSU6162 and placebo groups,before and after treatment,No significant differences
same,"Stroop 1, max",before treatment,22 s
same,"Stroop 1, mean",before treatment,13.97
same,"Stroop 1, median",before treatment,14
same,"Stroop 1, min",before treatment,9
same,"Stroop 2, max",before treatment,39 s
same,"Stroop 2, mean",before treatment,19.5
same,"Stroop 2, median",before treatment,19
same,"Stroop 2, min",before treatment,10
same,"Stroop 3, max",before treatment,51 s
same,"Stroop 3, mean",before treatment,26.8
same,"Stroop 3, median",before treatment,24
same,"Stroop 3, min",before treatment,14
same,"Stroop 1, Difference",before vs after treatment,1.2
same,"Stroop 2, Difference",before vs after treatment,3.2
same,"Stroop 3, Difference",before vs after treatment,4.9
